Source: ChEMBL document CHEMBL3856233, “Identification of (R)-(2-Chloro-3-(trifluoromethyl)phenyl)(1-(5-fluoropyridin-2-yl)-4-methyl-6,7-dihydro-1H-imidazo[4,5-c]pyridin-5(4H)-yl)methanone (JNJ 54166060), a Small Molecule Antagonist of the P2X7 receptor” (J Med Chem, 2016)
Values after ≈ are worked out from the molar mass of the structure shown.

Legend:
[1] = tested on: Rattus norvegicus; assay: Ex vivo receptor occupancy at P2X7 receptor in po dosed rat brain hippocampal tissue assessed as plasma concentration required for [3H]-(S)-7-(2-chloro-3-(trifluoromethyl)benzyl)-6-methyl-3-(pyrazin-2-yl)-6,7-dihydro-[1,2,4]triazolo[4,3-a]pyrazin-8(5H)-one displacement after 30 mins; type: functional, organism-based
[2] = molecular target: T1, CYP3A4 (Homo sapiens, UniProt P08684); assay: Inhibition of CYP3A4 in human liver microsomes using midazolam as substrate assessed as reduction in 1-OH-midazolam formation at 1.25 uM by LC/MS/MS analysis; type: ADME; conditions: probe midazolam
[3] = Protein binding in mouse plasma at 1 uM after 6 hrs by LC/MS/MS analysis; type: ADME, cell-free; conditions: read-out: PPB (converted)
[4] = Cmax in Sprague-Dawley rat at 5 mg/kg, po after 0.033 to 24 hrs by LC/MS/MS analysis; type: ADME, organism-based; set-up: dose 5 mg/kg, route oral; conditions: in vivo
[5] = molecular target: T1, CYP3A4; assay: Inhibition of CYP3A4 in human liver microsomes using midazolam as substrate assessed as reduction in 4-OH-midazolam formation at 0.313 uM by LC/MS/MS analysis; type: ADME; conditions: probe midazolam
[6] = Cmax in cynomolgus monkey at 5 mg/kg, po after 0.033 to 24 hrs by LC/MS/MS analysis; type: ADME, organism-based, Macaca fascicularis; set-up: dose 5 mg/kg, route oral; conditions: in vivo
[7] = Drug metabolism in human liver microsomes assessed as oxidation of fluoropyridine substituent at 10 uM after 60 mins by LC/MS/MS analysis; type: ADME; conditions: 1 h
[8] = Volume of distribution at steady state in Beagle dog at 1 mg/kg, iv after 0.033 to 24 hrs by LC/MS/MS analysis; type: ADME, organism-based, Canis lupus familiaris; conditions: in vivo, read-out: Vdss
[9] = Drug metabolism in human liver microsomes assessed as oxidation of imdazopyridine core at 10 uM after 60 mins by LC/MS/MS analysis; type: ADME; conditions: 1 h
[10] = tested on: Rattus norvegicus; assay: Ex vivo receptor occupancy at P2X7 receptor in po dosed rat brain hippocampal tissue assessed as brain concentration required for [3H]-(S)-7-(2-chloro-3-(trifluoromethyl)benzyl)-6-methyl-3-(pyrazin-2-yl)-6,7-dihydro-[1,2,4]triazolo[4,3-a]pyrazin-8(5H)-one displacement after 30 mins; type: functional, organism-based
[11] = molecular target: T1, CYP3A4; assay: Inhibition of CYP3A4 in human liver microsomes using midazolam as substrate assessed as reduction in 1-OH-midazolam formation at 2.5 uM by LC/MS/MS analysis; type: ADME; conditions: probe midazolam
[12] = Volume of distribution at steady state in cynomolgus monkey at 1 mg/kg, iv after 0.033 to 24 hrs by LC/MS/MS analysis; type: ADME, organism-based, Macaca fascicularis; conditions: in vivo, read-out: Vdss
[13] = Solubility of compound in phosphate buffer at pH 2 at room temperature after 3 days
[14] = Solubility of the compound in phosphate buffer at pH 7 at room temperature after 3 days
[15] = Oral bioavailability in Sprague-Dawley rat at 5 mg/kg after 0.033 to 24 hrs by LC/MS/MS analysis; type: ADME, organism-based; conditions: in vivo
[16] = molecular target: T1, CYP3A4; assay: Inhibition of CYP3A4 in human liver microsomes using midazolam as substrate assessed as reduction in 1-OH-midazolam formation at 10 uM by LC/MS/MS analysis; type: ADME; conditions: probe midazolam
[17] = molecular target: T2, P2X purinoceptor 7 (Mus musculus, UniProt Q9Z1M0); assay: Antagonist activity at recombinant mouse P2X7 receptor expressed in human 1321N1 cells assessed as inhibition of Bz-ATP-induced Ca2+ flux preincubated for 30 mins followed by agonist addition measured after 180 sec by calcium-4 dye based FLIPR assay; type: cell-based
T2 sequence (Q9Z1M0 whole entry): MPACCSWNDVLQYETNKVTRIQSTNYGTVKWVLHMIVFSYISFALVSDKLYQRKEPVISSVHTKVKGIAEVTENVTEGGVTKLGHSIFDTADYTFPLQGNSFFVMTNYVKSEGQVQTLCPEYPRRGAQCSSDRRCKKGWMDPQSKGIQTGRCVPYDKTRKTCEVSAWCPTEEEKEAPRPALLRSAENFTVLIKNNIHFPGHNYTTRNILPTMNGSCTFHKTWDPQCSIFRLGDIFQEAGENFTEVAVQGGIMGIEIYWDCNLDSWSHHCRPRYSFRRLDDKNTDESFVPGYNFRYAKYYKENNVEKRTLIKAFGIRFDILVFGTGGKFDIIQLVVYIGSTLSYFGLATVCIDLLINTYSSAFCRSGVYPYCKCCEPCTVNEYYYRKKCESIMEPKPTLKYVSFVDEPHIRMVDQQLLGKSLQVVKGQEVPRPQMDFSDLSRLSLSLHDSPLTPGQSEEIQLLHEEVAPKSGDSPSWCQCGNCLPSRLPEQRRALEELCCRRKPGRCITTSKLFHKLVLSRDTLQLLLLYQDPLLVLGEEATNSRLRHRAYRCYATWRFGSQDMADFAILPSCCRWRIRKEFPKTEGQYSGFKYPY

[18] = Brain tissue binding in rat brain homogenate at 5 uM after 5 hrs by LC/MS/MS analysis; conditions: in vitro
[19] = Tmax in cynomolgus monkey at 5 mg/kg, po after 0.033 to 24 hrs by LC/MS/MS analysis; type: ADME, organism-based, Macaca fascicularis; conditions: in vivo
[20] = molecular target: T1, CYP3A4; assay: Inhibition of CYP3A4 in human liver microsomes using midazolam as substrate assessed as reduction in 1-OH-midazolam formation at 0.625 uM by LC/MS/MS analysis; type: ADME; conditions: probe midazolam
[21] = Oral bioavailability in Beagle dog at 5 mg/kg after 0.033 to 24 hrs by LC/MS/MS analysis; type: ADME, organism-based, Canis lupus familiaris; conditions: in vivo
[22] = Protein binding in human plasma at 1 uM after 6 hrs by LC/MS/MS based equilibrium dialysis method; type: ADME, cell-free; conditions: read-out: PPB (converted)
[23] = Clearance in Sprague-Dawley rat at 1 mg/kg, iv after 0.033 to 24 hrs by LC/MS/MS analysis; type: ADME, organism-based; conditions: in vivo
[24] = Clearance in cynomolgus monkey at 1 mg/kg, iv after 0.033 to 24 hrs by LC/MS/MS analysis; type: ADME, organism-based, Macaca fascicularis; conditions: in vivo
[25] = molecular target: T1, CYP3A4; assay: Inhibition of CYP3A4 in human liver microsomes using midazolam as substrate assessed as reduction in 1-OH-midazolam formation at 5 uM by LC/MS/MS analysis; type: ADME; conditions: probe midazolam
[26] = Volume of distribution at steady state in Sprague-Dawley rat at 1 mg/kg, iv after 0.033 to 24 hrs by LC/MS/MS analysis; type: ADME, organism-based; conditions: in vivo, read-out: Vdss
[27] = Protein binding in rat plasma at 1 uM after 6 hrs by LC/MS/MS based equilibrium dialysis method; type: ADME, cell-free; conditions: read-out: PPB (converted)
[28] = tested on: Rattus norvegicus; assay: Toxicity in rat assessed as central lobular hepatocellular degeneration at 250 mg/kg/day, po administered for 4 days followed by necropsy on day 5 post treatment by histological analysis; type: organism-based; conditions: in vivo, 96 h
[29] = Tmax in rat at 1000 mg/kg, po; type: ADME, organism-based; conditions: in vivo
[30] = Permeability from basolateral to apical side in human Caco2 cells at 10 uM after […] by LC/MS/MS analysis; type: ADME, cell-based; conditions: Caco-2, read-out: permeability
[31] = tested on: Rattus norvegicus; assay: Toxicity in rat assessed as increase in total serum cholesterol at 125 to 250 mg/kg, po administered for 4 days followed by necropsy on day 5 post treatment by histological analysis; type: organism-based; conditions: in vivo, 96 h

T1 sequence (P08684 whole entry): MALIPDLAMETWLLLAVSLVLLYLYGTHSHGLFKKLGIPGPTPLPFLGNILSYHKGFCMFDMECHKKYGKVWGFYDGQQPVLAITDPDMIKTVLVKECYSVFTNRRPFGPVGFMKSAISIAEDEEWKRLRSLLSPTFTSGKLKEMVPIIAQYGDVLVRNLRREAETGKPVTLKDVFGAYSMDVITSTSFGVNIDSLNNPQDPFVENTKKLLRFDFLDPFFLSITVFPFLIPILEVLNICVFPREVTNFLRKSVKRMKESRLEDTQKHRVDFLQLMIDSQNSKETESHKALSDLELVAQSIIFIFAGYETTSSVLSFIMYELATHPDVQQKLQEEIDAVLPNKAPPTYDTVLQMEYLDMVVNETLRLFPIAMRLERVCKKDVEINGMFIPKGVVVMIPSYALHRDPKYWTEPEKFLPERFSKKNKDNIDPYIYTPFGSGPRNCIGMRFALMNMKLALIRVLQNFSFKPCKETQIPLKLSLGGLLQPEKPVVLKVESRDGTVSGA

EC50 ([1]; Rattus norvegicus, P2X7, Brain/Plasma): 0.125 µg/mL (≈ 0.285 µM)
inhibition at 1.25 µM [2]: 41%
fraction unbound at 6 h, 1 µM [3]: 0.045
Cmax [4]: 375 ng/mL
inhibition at 0.313 µM [5]: 0.1%
Cmax [6]: 389 ng/mL
Drug metabolism [7]: Metabolite_Notdetected
Vd [8]: 3.6 L/kg
Drug metabolism [9]: Metabolite_Detected
EC50 ([10]; Rattus norvegicus, P2X7): 0.362 µg/mL (≈ 0.825 µM)
inhibition at 2.5 µM [11]: 52%
Vd [12]: 2.1 L/kg
solubility at 72 h [13]: > 400 µM
solubility at 72 h [14]: 29 µM (≈ 12.7 µg/mL)
bioavailability [15]: 55%
inhibition at 10 µM [16]: 74%
IC50 [17]: 72 nM
Brain tissue binding [18]: 98.5%
Tmax [19]: 2.3 h
inhibition at 0.625 µM [20]: 29%
bioavailability [21]: > 100%
fraction unbound at 6 h, 1 µM [22]: 0.055
clearance [23]: 30 mL/min/kg
clearance [24]: 14 mL/min/kg
inhibition at 5 µM [25]: 63%
Vd [26]: 3.8 L/kg
fraction unbound at 6 h, 1 µM [27]: 0.051
Tmax [29]: 24 h
Papp B→A at 10 µM [30]: 35 ×10⁻⁶ cm/s
SMILES: C[C@@H]1c2ncn(-c3ccc(F)cn3)c2CCN1C(=O)c1cccc(C(F)(F)F)c1Cl
fIC50 [1]: 15 nM
fIC50 [10]: 12 nM
Activity [28]: Toxic
Activity [31]: Toxic
